Data set [1] can be described thus: Pharmacokinetic characteristics in rats after intravenous administration (plasma, LC-MS/MS). As to conditions: rat, SD rats, tail vein, 10 mg/kg; for Vd: read-out: Vss. It counts as in vivo. The method, then: Intravenous administration: Three SD rats per group were administered the compounds of Example 1, Example 2, Example 3, Example 6, Example 7, Example 17, and Example 19 via the tail vein, respectively, at a dose of 10 mg/kg. all SD rats were allowed free access to food and water after administration. Plasma was collected 3 min, 10 min, 30 min, 1 h, 2 h, 6 h, 10 h, and 24 h after administration, with 3 rats per time point.
Sample processing: Whole blood was anticoagulated with EDTA-K2. Within 30 minutes of collection, the blood was centrifuged at 3000g for 10 minutes at 2-8°C. After centrifugation, the separated plasma was transferred to new 1.5 mL centrifuge tubes and stored at -80°C.
Analytical method: The concentrations of each compounds in rat plasma were determined by LC-MS/MS using Shimadzu LC30AD and AB Sciex QTRAP 6500+instruments. The relevant pharmacokinetic parameters after administration were calculated. Table 5: Pharmacokinetic parameters after administration

The test system of the next data set is PC-12 cells. It counts as cell-based. The following applies: for Normalized cell viability (%): PC-12 cells, 10 nM polypeptide pretreatment for 30 minutes, then glutamate stimulation for 24 hours, normalized to positive control MK-801 and glutamate group. The method, then:
PC-12 cells (a […] cell line derived from rat adrenal medulla) were cultured in DMEM/F12 complete medium until eaching 80-90% confluence. The cells were then digested, collected, resuspended, and seeded at density of 5 × 10^4 cells per well in a 24-well plate precoated with coverslips. Following 26 hours of cell culture, excitotoxic cell death was induced by glutamate stimulation. For model establishment: an appropriate amount of glutamate was weighed and dissolved in DMEM/F12 medium to prepare a stock solution. After filtration, the stock solution was diluted with culture medium and administered to the cells via medium replacement. The cells were further incubated for 24 hours after administration.
Prior to glutamate modeling, cells incubated as described in the previous step were pretreated with 10 nM of the polypeptide compound according to the present application for 30 minutes, followed by glutamate stimulation.
Cells treated with the polypeptide compound according to the present application were stained with propidium iodide to assess cell death. After discarding the culture medium, the cells were washed with PBS, and propidium iodide/Hoechst was added. After incubating for 30 minutes, the cells were removed and the staining solution was discarded. After washing with PBS, the cells were fixed and mounted, and subjected to image acquisition under a fluorescence microscope. The number of propidium iodide-positive cells and Hoechst-positive cells in the acquired images was counted to calculate the cell viability. MK-801 was used as the positive control compound. The normalized cell viability was calculated using the following formula: (cell viability of the compound group - cell viability of the glutamate group) / (cell viability of the positive control group - cell viability of the glutamate group) × 100%.
Based on the above dose-response studies of the compound, the inhibitory effects of different small-molecule compounds at the same dose (10 nM) against excitotoxic death in PC-12 neurons cells were further compared. […]

Where a SMILES comes first, the peptide text is derived from it. Where no end group is shown, it is not given here. [ ]: non-standard residue; d: D form. pY = N[C@@H](Cc1ccc(OP(=O)(O)O)cc1)C(=O)O; NMeY = CN[C@@H](Cc1ccc(O)cc1)C(=O)O; Tle = CC(C)(C)[C@H](N)C(=O)O; Aib = CC(C)(N)C(=O)O

`CN[C@@H](Cc1ccc(O)cc1)C(=O)NCC(=O)N[C@@H](CCCNC(=N)N)C(=O)N[C@@H](CCCCN)C(=O)N[C@@H](CCCCN)C(=O)N[C@@H](CCCNC(=N)N)C(=O)N[C@@H](CCCNC(=N)N)C(=O)N[C@@H](CCC(N)=O)C(=O)N[C@@H](CCCNC(=N)N)C(=O)N[C@@H](CCCNC(=N)N)C(=O)N[C@@H](CCCNC(=N)N)C(=O)N[C@@H](CCCCN)C(=O)N[C@@H](CCCCN)C(=O)N[C@@H](CC(N)=O)C(=O)N[C@@H](CCCNC(=N)N)C(=O)N[C@@H](CC(N)=O)C(=O)N[C@@H](CCCCN)C(=O)N[C@@H](CC(C)C)C(=O)N[C@@H](CCCNC(=N)N)C(=O)N[C@@H](CCCNC(=N)N)C(=O)N[C@@H](CCC(N)=O)C(=O)N[C@@H](Cc1c[nH]cn1)C(=O)N[C@@H](CO)C(=O)N[C@@H](Cc1ccc(O)cc1)C(=O)O` [Example 2] (H-[NMeY]GRKKRRQRRRKKNRNKLRRQHSY-OH): in data set [1], the MRT worked out at 1.84 h, the half-life was 1.73 h and the Vd is 3.94 L/kg.

On to `CC(C)C[C@H](NC(=O)[C@H](CCCCN)NC(=O)[C@H](CC(N)=O)NC(=O)[C@H](CCCNC(=N)N)NC(=O)[C@H](CC(N)=O)NC(=O)[C@H](CCCCN)NC(=O)[C@H](CCCCN)NC(=O)[C@H](CCCNC(=N)N)NC(=O)[C@H](CCCNC(=N)N)NC(=O)[C@H](CCCNC(=N)N)NC(=O)[C@H](CCC(N)=O)NC(=O)[C@H](CCCNC(=N)N)NC(=O)[C@H](CCCNC(=N)N)NC(=O)[C@H](CCCCN)NC(=O)[C@H](CCCCN)NC(=O)[C@H](CCCNC(=N)N)NC(=O)CNC(=O)[C@@H](N)Cc1ccc(OP(=O)(O)O)cc1)C(=O)N[C@@H](CCCNC(=N)N)C(=O)N[C@@H](CCCNC(=N)N)C(=O)N[C@@H](CCC(N)=O)C(=O)N[C@@H](Cc1c[nH]cn1)C(=O)N[C@@H](CO)C(=O)N[C@@H](Cc1ccc(O)cc1)C(=O)O` [Example 3] (H-[pY]GRKKRRQRRRKKNRNKLRRQHSY-OH), for which, in data set [1], the MRT worked out at 1.71 h, the half-life was 1.28 h and the Vd came to 7.9 L/kg.

As to `CN[C@@H](Cc1ccc(O)cc1)C(=O)NCC(=O)N[C@@H](CCCNC(=N)N)C(=O)N[C@@H](CCCCN)C(=O)N[C@@H](CCCCN)C(=O)N[C@@H](CCCNC(=N)N)C(=O)N[C@@H](CCCNC(=N)N)C(=O)N[C@@H](CCC(=O)O)C(=O)N[C@@H](CCCNC(=N)N)C(=O)N[C@@H](CCCNC(=N)N)C(=O)N[C@@H](CCCNC(=N)N)C(=O)N[C@@H](CCCCN)C(=O)N[C@@H](CCCCN)C(=O)N[C@@H](CC(=O)O)C(=O)N[C@@H](CCCNC(=N)N)C(=O)N[C@@H](CC(=O)O)C(=O)N[C@@H](CCCCN)C(=O)N[C@@H](CC(C)C)C(=O)N[C@@H](CCCNC(=N)N)C(=O)N[C@@H](CCCNC(=N)N)C(=O)N[C@@H](CCC(=O)O)C(=O)N[C@@H](Cc1c[nH]cn1)C(=O)N[C@@H](CO)C(=O)N[C@@H](Cc1ccc(O)cc1)C(N)=O` [Example 19] (H-[NMeY]GRKKRRERRRKKDRDKLRREHSY-NH2), in data set [1], the MRT came to 1.73 h, the half-life is 1.16 h and the Vd came out at 9.11 L/kg.

In the case of `CN[C@@H](Cc1ccc(O)cc1)C(=O)NC(C)(C)C(=O)N[C@@H](CCCNC(=N)N)C(=O)N[C@@H](CCCCN)C(=O)N[C@@H](CCCCN)C(=O)N[C@@H](CCCNC(=N)N)C(=O)N[C@@H](CCCNC(=N)N)C(=O)N[C@@H](CCC(=O)O)C(=O)N[C@@H](CCCNC(=N)N)C(=O)N[C@@H](CCCNC(=N)N)C(=O)N[C@@H](CCCNC(=N)N)C(=O)N[C@@H](CCCCN)C(=O)N[C@@H](CCCCN)C(=O)N[C@@H](CC(=O)O)C(=O)N[C@@H](CCCNC(=N)N)C(=O)N[C@@H](CC(=O)O)C(=O)N[C@@H](CCCCN)C(=O)N[C@H](C(=O)N[C@@H](CCCNC(=N)N)C(=O)N[C@@H](CCCNC(=N)N)C(=O)N[C@@H](CCC(=O)O)C(=O)N[C@@H](Cc1c[nH]cn1)C(=O)N[C@@H](CO)C(=O)N[C@@H](Cc1ccc(O)cc1)C(N)=O)C(C)(C)C` [Example 24, Me-YAibRKKRRERRRKKDRDKTleRREHSY-NH2] (H-[NMeY][Aib]RKKRRERRRKKDRDK[Tle]RREHSY-NH2), the EC50 in the data set on PC-12 cells (26 h) came to 1.35 nM.

Turning to Ac-YGRKKRRQRRRKKNRNKLRRQHSY [Example 4], in the data set on PC-12 cells, the “Normalized cell viability (%)” value is 85.00%.

For “Ac-YGRKKRRQRRRKKNRNKLRRQHSY-NH2 [Example 7]”, in data set [1], the MRT amounted to 1.93 h, the half-life was 1.51 h and the Vd stood at 3.58 L/kg.

As to YGRKKRRERRRKKDRNKLRRQHSY [Example 17], in data set [1], the MRT stood at 2.29 h, the half-life was 1.66 h and the Vd was found to be 23.1 L/kg.

With “YGRKKRRQRRRKKNRNKLRRQHSY [Example 1, reference compound]”, the “Normalized cell viability (%)” value with PC-12 cells was 41.00%. Moreover, in data set [1], the MRT stood at 0.87 h, the half-life was 0.76 h and the Vd was found to be 1.29 L/kg.

As for “YGRKKRRQRRRKKNRNKLRRQHSY-NH2 [Example 6]”, in data set [1], the MRT was 1.65 h, the half-life is 1.23 h and the Vd was 2.53 L/kg.

In general, MRT refers to a mean duration of stay, worked out from the concentration-time curve. What is called half-life is the time in which the quantity being followed falls by half. Broadly, the EC50 is the concentration at which the effect is half-maximal. A lower EC50 goes with higher potency in that assay.

For the origin of these results see EP4818194A1, “CHEMICALLY MODIFIED POLYPEPTIDE” (priority 2023, dated 2025).
